Each compound was assayed against T1, human CYP1A2 (Homo sapiens, UniProt P05177) (assay: biochemical). Conditions: not given.
T1 sequence (P05177 1-516): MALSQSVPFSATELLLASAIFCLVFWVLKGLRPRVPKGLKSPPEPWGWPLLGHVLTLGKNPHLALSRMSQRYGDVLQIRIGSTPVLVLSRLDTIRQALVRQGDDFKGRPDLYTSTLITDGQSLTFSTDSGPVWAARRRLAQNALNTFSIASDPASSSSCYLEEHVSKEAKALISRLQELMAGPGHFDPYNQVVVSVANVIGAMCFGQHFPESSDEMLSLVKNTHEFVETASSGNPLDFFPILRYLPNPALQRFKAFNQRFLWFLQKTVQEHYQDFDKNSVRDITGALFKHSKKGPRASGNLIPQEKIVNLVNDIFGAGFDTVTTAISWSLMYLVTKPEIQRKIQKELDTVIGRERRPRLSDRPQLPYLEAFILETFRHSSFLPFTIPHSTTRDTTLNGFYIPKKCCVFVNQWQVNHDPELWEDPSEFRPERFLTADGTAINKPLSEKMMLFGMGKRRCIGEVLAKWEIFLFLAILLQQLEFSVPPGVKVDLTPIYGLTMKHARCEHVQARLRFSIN

Row | Structure (SMILES) | AC50 | IC50
1 | Oc1ccc(-c2ccc(O)cc2)cc1 [4,4'-Biphenyldiol] | 32.1 µM | 
2 | O=C(c1ccc(O)cc1)c1ccc(O)cc1 [4,4'-Dihydoxybenzophenone] | 38.5 ± 2.51 µM | 
3 | O=S(=O)(c1ccccc1)c1ccc(Cl)cc1 [4-Chlorophenyl phenyl sulfone] | 43.2 µM | 
4 | O=C1N(c2ccccc2)c2ccccc2C1(Cc1ccncc1)Cc1ccncc1 [Linopirdine] |  | 24.1 ± 9.56 µM
5 | COC(=O)c1cc(Cl)ccc1[N+](=O)[O-] [Methyl 5-chloro-2-nitrobenzoate] | 7.13 µM | 
6 | CCCN(CCc1cccs1)[C@H]1CCc2c(O)cccc2C1 [Rotigotine] | 31 ± 3.57 µM | 31 ± 3.57 µM

Same assay, conditions: CYP1A2 AC50 (half-maximal activity concentration)

Row | Structure (SMILES) | AC50
7 | O=c1[nH]sc2ccccc12 [1,2-Benzisothiazolin-3-one] | 31.7 µM
8 | Oc1cc(Cl)c(Cl)c(Cl)c1 [3,4,5-Trichlorophenol] | 26.1 µM
9 | O=C(c1ccccc1)c1ccc(O)cc1 [4-Hydroxybenzophenone] | 29 µM
10 | CC(C)(C)c1ccc(O)c(O)c1 [4-tert-Butylcatechol] | 60 µM
11 | N=C(N)N/N=C/c1c(Cl)cccc1Cl [Guanabenz] | 14.4 µM

Same assay, conditions: CYP1A2 IC50 (half-maximal inhibitory concentration)

Row | Structure (SMILES) | IC50
12 | CC(C)[N+](C)(CCC(C(N)=O)(c1ccccc1)c1ccccc1)C(C)C [Isopropamide] | 30.4 µM
13 | Clc1ccc(C(Cn2ccnc2)OCc2ccsc2Cl)c(Cl)c1 (centres unmarked) [Tioconazole] | 4.61 µM
14 | N#C/C(=C1/SC[C@@H](c2ccc(Cl)cc2Cl)S1)n1ccnc1 [luliconazole, reference compound] | 0.33 µM

What follows are compounds tested against CYP3A4 (Homo sapiens, UniProt P08684) (assay: not given). Conditions: not given.
Chain of CYP3A4 (P08684 whole entry): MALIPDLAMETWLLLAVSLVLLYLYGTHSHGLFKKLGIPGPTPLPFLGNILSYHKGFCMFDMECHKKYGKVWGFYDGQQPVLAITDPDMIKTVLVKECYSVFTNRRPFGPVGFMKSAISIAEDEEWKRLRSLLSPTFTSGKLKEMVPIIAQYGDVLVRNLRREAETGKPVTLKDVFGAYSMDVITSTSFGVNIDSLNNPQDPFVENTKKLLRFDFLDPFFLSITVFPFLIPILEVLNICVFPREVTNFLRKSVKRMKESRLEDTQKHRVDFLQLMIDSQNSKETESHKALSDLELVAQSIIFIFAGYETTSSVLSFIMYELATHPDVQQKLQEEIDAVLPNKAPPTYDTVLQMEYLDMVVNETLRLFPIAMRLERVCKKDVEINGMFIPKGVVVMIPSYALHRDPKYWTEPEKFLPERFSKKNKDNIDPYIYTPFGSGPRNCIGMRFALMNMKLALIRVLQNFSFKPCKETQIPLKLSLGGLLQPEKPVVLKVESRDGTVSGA

Row | Structure (SMILES) | CYP3A4 AC50 (half-maximal activity concentration)
15 | O=c1[nH]sc2ccccc12 [1,2-Benzisothiazolin-3-one] | Inconclusive inhibitor
16 | Oc1cc(Cl)c(Cl)c(Cl)c1 [3,4,5-Trichlorophenol] | Inconclusive inhibitor
17 | Oc1ccc(-c2ccc(O)cc2)cc1 [4,4'-Biphenyldiol] | Inconclusive inhibitor
18 | O=S(=O)(c1ccccc1)c1ccc(Cl)cc1 [4-Chlorophenyl phenyl sulfone] | Inactive
19 | O=C(c1ccccc1)c1ccc(O)cc1 [4-Hydroxybenzophenone] | Inactive
20 | CC(C)(C)c1ccc(O)c(O)c1 [4-tert-Butylcatechol] | Inactive
21 | N=C(N)N/N=C/c1c(Cl)cccc1Cl [Guanabenz] | Inactive
22 | COC(=O)c1cc(Cl)ccc1[N+](=O)[O-] [Methyl 5-chloro-2-nitrobenzoate] | Inactive

Same assay, conditions: mean ± standard deviation from three experiments; activity call in words where no AC50

Row | Structure (SMILES) | CYP3A4 AC50 (half-maximal activity concentration)
23 | O=C(c1ccc(O)cc1)c1ccc(O)cc1 [4,4'-Dihydoxybenzophenone] | Inconclusive inhibitor

These compounds were tested against T2, human CYP2C9 (Homo sapiens, UniProt P11712) (assay: biochemical). Conditions: not given.
T2 sequence (P11712 whole entry): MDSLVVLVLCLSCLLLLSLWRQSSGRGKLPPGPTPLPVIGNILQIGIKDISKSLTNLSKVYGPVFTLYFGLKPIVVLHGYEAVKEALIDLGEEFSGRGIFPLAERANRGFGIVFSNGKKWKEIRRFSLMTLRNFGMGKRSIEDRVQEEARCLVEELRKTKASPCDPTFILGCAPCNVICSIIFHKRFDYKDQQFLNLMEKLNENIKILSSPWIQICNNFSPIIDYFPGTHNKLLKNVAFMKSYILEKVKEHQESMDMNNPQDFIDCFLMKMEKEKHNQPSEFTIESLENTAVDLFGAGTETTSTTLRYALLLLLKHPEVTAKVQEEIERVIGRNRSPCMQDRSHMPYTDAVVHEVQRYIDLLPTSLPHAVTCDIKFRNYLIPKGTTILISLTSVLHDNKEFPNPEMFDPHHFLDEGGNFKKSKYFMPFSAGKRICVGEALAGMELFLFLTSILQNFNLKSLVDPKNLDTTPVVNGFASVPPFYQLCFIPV

Row | Structure (SMILES) | AC50 | IC50
24 | Oc1ccc(-c2ccc(O)cc2)cc1 [4,4'-Biphenyldiol] | 9.08 µM | 
25 | O=C(c1ccc(O)cc1)c1ccc(O)cc1 [4,4'-Dihydoxybenzophenone] | 0.77 ± 0.4 µM | 
26 | O=S(=O)(c1ccccc1)c1ccc(Cl)cc1 [4-Chlorophenyl phenyl sulfone] | 5.88 µM | 
27 | O=C1N(c2ccccc2)c2ccccc2C1(Cc1ccncc1)Cc1ccncc1 [Linopirdine] |  | 3.04 ± 0.74 µM
28 | COC(=O)c1cc(Cl)ccc1[N+](=O)[O-] [Methyl 5-chloro-2-nitrobenzoate] | 49.3 µM | 
29 | CCCN(CCc1cccs1)[C@H]1CCc2c(O)cccc2C1 [Rotigotine] | 16.1 ± 1.09 µM | 16.1 ± 1.09 µM

Same assay, conditions: CYP2C9 AC50 (half-maximal activity concentration)

Row | Structure (SMILES) | AC50
30 | O=c1[nH]sc2ccccc12 [1,2-Benzisothiazolin-3-one] | 34.3 µM
31 | Oc1cc(Cl)c(Cl)c(Cl)c1 [3,4,5-Trichlorophenol] | 11.1 µM
32 | O=C(c1ccccc1)c1ccc(O)cc1 [4-Hydroxybenzophenone] | 2.7 µM
33 | CC(C)(C)c1ccc(O)c(O)c1 [4-tert-Butylcatechol] | 73.7 µM
34 | N=C(N)N/N=C/c1c(Cl)cccc1Cl [Guanabenz] | 37.7 µM

Same assay, conditions: CYP2C9 IC50 (half-maximal inhibitory concentration)

Row | Structure (SMILES) | IC50
35 | CC(C)[N+](C)(CCC(C(N)=O)(c1ccccc1)c1ccccc1)C(C)C [Isopropamide] | 33.3 µM
36 | Clc1ccc(C(Cn2ccnc2)OCc2ccsc2Cl)c(Cl)c1 (centres unmarked) [Tioconazole] | 0.21 µM
37 | N#C/C(=C1/SC[C@@H](c2ccc(Cl)cc2Cl)S1)n1ccnc1 [luliconazole, reference compound] | 0.52 µM

The compounds below were run against T3, human CYP2D6 (Homo sapiens, UniProt P10635) (assay: biochemical). Conditions: not given.
T3 sequence (P10635 whole entry): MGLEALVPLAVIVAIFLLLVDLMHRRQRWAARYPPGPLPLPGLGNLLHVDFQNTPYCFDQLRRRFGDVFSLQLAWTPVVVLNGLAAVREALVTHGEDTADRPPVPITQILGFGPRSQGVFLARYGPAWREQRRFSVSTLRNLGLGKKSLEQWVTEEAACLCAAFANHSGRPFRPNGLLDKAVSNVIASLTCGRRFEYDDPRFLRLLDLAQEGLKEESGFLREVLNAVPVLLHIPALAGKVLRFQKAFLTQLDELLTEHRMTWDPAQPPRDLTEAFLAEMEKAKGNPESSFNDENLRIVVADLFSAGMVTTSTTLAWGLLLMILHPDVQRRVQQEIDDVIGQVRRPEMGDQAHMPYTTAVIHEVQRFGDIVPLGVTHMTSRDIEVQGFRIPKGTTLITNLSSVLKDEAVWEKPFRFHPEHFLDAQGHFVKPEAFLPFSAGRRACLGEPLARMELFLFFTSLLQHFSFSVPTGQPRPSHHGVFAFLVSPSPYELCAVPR

Row | Structure (SMILES) | AC50 | IC50
38 | Oc1ccc(-c2ccc(O)cc2)cc1 [4,4'-Biphenyldiol] | 61.3 µM | 
39 | O=C(c1ccc(O)cc1)c1ccc(O)cc1 [4,4'-Dihydoxybenzophenone] | 63.5 ± 20.9 µM | 
40 | O=S(=O)(c1ccccc1)c1ccc(Cl)cc1 [4-Chlorophenyl phenyl sulfone] | 66.7 µM | 
41 | O=C1N(c2ccccc2)c2ccccc2C1(Cc1ccncc1)Cc1ccncc1 [Linopirdine] |  | 20.7 ± 9.02 µM
42 | COC(=O)c1cc(Cl)ccc1[N+](=O)[O-] [Methyl 5-chloro-2-nitrobenzoate] | 61.4 µM | 
43 | CCCN(CCc1cccs1)[C@H]1CCc2c(O)cccc2C1 [Rotigotine] | 0.4 ± 0.09 µM | 0.4 ± 0.09 µM

Same assay, conditions: CYP2D6 AC50 (half-maximal activity concentration)

Row | Structure (SMILES) | AC50
44 | O=c1[nH]sc2ccccc12 [1,2-Benzisothiazolin-3-one] | 11.3 µM
45 | Oc1cc(Cl)c(Cl)c(Cl)c1 [3,4,5-Trichlorophenol] | 29 µM
46 | O=C(c1ccccc1)c1ccc(O)cc1 [4-Hydroxybenzophenone] | 36.1 µM
47 | CC(C)(C)c1ccc(O)c(O)c1 [4-tert-Butylcatechol] | 9.07 µM
48 | N=C(N)N/N=C/c1c(Cl)cccc1Cl [Guanabenz] | 13.8 µM

Same assay, conditions: CYP2D6 IC50 (half-maximal inhibitory concentration)

Row | Structure (SMILES) | IC50
49 | CC(C)[N+](C)(CCC(C(N)=O)(c1ccccc1)c1ccccc1)C(C)C [Isopropamide] | 0.7 µM
50 | Clc1ccc(C(Cn2ccnc2)OCc2ccsc2Cl)c(Cl)c1 (centres unmarked) [Tioconazole] | 2.79 µM
51 | N#C/C(=C1/SC[C@@H](c2ccc(Cl)cc2Cl)S1)n1ccnc1 [luliconazole, reference compound] | 0.22 µM

These compounds were tested against T3, human CYP2D6 (assay: not given). Conditions: human.

Row | Structure (SMILES) | CYP2D6 Efficacy (in parenthesis)
52 | CC(C)[N+](C)(CCC(C(N)=O)(c1ccccc1)c1ccccc1)C(C)C [Isopropamide] | 0.7 ± 0.32 (-99 ± 8) %
53 | O=C1N(c2ccccc2)c2ccccc2C1(Cc1ccncc1)Cc1ccncc1 [Linopirdine] | 20.69 ± 9.02 (-61 ± 27) %
54 | CCCN(CCc1cccs1)[C@H]1CCc2c(O)cccc2C1 [Rotigotine] | 0.4 ± 0.09 (-102 ± 0) %
55 | Clc1ccc(C(Cn2ccnc2)OCc2ccsc2Cl)c(Cl)c1 (centres unmarked) [Tioconazole] | 2.79 ± 0.58 (-109 ± 6) %
56 | N#C/C(=C1/SC[C@@H](c2ccc(Cl)cc2Cl)S1)n1ccnc1 [luliconazole, reference compound] | 0.22 ± 0.03 (-105 ± 2) %

Each compound was assayed against T4, human CYP2C19 (Homo sapiens, UniProt P33261) (assay: not given). Conditions: not given.
T4 sequence (P33261 whole entry): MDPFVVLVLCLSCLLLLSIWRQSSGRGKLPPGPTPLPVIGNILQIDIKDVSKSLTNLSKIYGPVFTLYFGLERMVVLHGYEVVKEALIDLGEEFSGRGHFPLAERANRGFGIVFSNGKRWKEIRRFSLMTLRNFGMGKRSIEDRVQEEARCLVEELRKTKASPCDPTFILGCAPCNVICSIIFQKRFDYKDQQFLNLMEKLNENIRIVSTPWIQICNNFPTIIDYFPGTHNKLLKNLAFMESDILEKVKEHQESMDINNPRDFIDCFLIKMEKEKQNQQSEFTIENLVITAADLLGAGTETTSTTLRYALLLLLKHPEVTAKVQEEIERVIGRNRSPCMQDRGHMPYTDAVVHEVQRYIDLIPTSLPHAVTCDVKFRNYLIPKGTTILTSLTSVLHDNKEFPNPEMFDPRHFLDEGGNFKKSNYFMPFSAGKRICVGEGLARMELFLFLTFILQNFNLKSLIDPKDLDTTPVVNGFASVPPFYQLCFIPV

Row | Structure (SMILES) | CYP2C19 AC50 (half-maximal activity concentration)
57 | Oc1ccc(-c2ccc(O)cc2)cc1 [4,4'-Biphenyldiol] | Inconclusive inhibitor
58 | N=C(N)N/N=C/c1c(Cl)cccc1Cl [Guanabenz] | Inactive

Same assay, conditions: human

Row | Structure (SMILES) | CYP2C19 Efficacy (in parenthesis)
59 | CC(C)[N+](C)(CCC(C(N)=O)(c1ccccc1)c1ccccc1)C(C)C [Isopropamide] | 35.59 ± 11.39 (-61 ± 21) %
60 | O=C1N(c2ccccc2)c2ccccc2C1(Cc1ccncc1)Cc1ccncc1 [Linopirdine] | 1.71 ± 1.07 (-136 ± 7) %
61 | CCCN(CCc1cccs1)[C@H]1CCc2c(O)cccc2C1 [Rotigotine] | 2.55 ± 0.17 (-115 ± 10) %
62 | Clc1ccc(C(Cn2ccnc2)OCc2ccsc2Cl)c(Cl)c1 (centres unmarked) [Tioconazole] | 0.25 ± 0.09 (-140 ± 3) %
63 | N#C/C(=C1/SC[C@@H](c2ccc(Cl)cc2Cl)S1)n1ccnc1 [luliconazole, reference compound] | 0.46 ± 0.08 (-137 ± 13) %

The compounds below were run against T2, human CYP2C9 (assay: not given). Conditions: human.

Row | Structure (SMILES) | CYP2C9 Efficacy (in parenthesis)
64 | CC(C)[N+](C)(CCC(C(N)=O)(c1ccccc1)c1ccccc1)C(C)C [Isopropamide] | 33.31 ± 14 (-72 ± 28) %
65 | O=C1N(c2ccccc2)c2ccccc2C1(Cc1ccncc1)Cc1ccncc1 [Linopirdine] | 3.04 ± 0.74 (-95 ± 5) %
66 | CCCN(CCc1cccs1)[C@H]1CCc2c(O)cccc2C1 [Rotigotine] | 16.12 ± 1.09 (-56 ± 2) %
67 | Clc1ccc(C(Cn2ccnc2)OCc2ccsc2Cl)c(Cl)c1 (centres unmarked) [Tioconazole] | 0.21 ± 0.09 (-104 ± 10) %
68 | N#C/C(=C1/SC[C@@H](c2ccc(Cl)cc2Cl)S1)n1ccnc1 [luliconazole, reference compound] | 0.52 ± 0.12 (-109 ± 5) %

Each compound was assayed against T1, human CYP1A2 (assay: not given). Conditions: human.

Row | Structure (SMILES) | CYP1A2 Efficacy (in parenthesis)
69 | CC(C)[N+](C)(CCC(C(N)=O)(c1ccccc1)c1ccccc1)C(C)C [Isopropamide] | 30.41 ± 7.39 (-70 ± 30) %
70 | O=C1N(c2ccccc2)c2ccccc2C1(Cc1ccncc1)Cc1ccncc1 [Linopirdine] | 24.14 ± 9.56 (-50 ± 8) %
71 | CCCN(CCc1cccs1)[C@H]1CCc2c(O)cccc2C1 [Rotigotine] | 31.04 ± 3.57 (-46 ± 10) %
72 | Clc1ccc(C(Cn2ccnc2)OCc2ccsc2Cl)c(Cl)c1 (centres unmarked) [Tioconazole] | 4.61 ± 0.27 (-94 ± 11) %
73 | N#C/C(=C1/SC[C@@H](c2ccc(Cl)cc2Cl)S1)n1ccnc1 [luliconazole, reference compound] | 0.33 ± 0.09 (-91 ± 7) %

The compounds below were run against T4, human CYP2C19 (assay: biochemical). Conditions: not given.

Row | Structure (SMILES) | AC50 | IC50
74 | O=C(c1ccc(O)cc1)c1ccc(O)cc1 [4,4'-Dihydoxybenzophenone] | 31.8 ± 10.5 µM | 
75 | O=S(=O)(c1ccccc1)c1ccc(Cl)cc1 [4-Chlorophenyl phenyl sulfone] | 4.75 µM | 
76 | O=C1N(c2ccccc2)c2ccccc2C1(Cc1ccncc1)Cc1ccncc1 [Linopirdine] |  | 1.71 ± 1.07 µM
77 | COC(=O)c1cc(Cl)ccc1[N+](=O)[O-] [Methyl 5-chloro-2-nitrobenzoate] | 80 µM | 
78 | CCCN(CCc1cccs1)[C@H]1CCc2c(O)cccc2C1 [Rotigotine] | 2.55 ± 0.17 µM | 2.55 ± 0.17 µM

Same assay, conditions: CYP2C19 AC50 (half-maximal activity concentration)

Row | Structure (SMILES) | AC50
79 | O=c1[nH]sc2ccccc12 [1,2-Benzisothiazolin-3-one] | 2.38 µM
80 | Oc1cc(Cl)c(Cl)c(Cl)c1 [3,4,5-Trichlorophenol] | 19.5 µM
81 | O=C(c1ccccc1)c1ccc(O)cc1 [4-Hydroxybenzophenone] | 31.7 µM
82 | CC(C)(C)c1ccc(O)c(O)c1 [4-tert-Butylcatechol] | 13.6 µM

Same assay, conditions: CYP2C19 IC50 (half-maximal inhibitory concentration)

Row | Structure (SMILES) | IC50
83 | CC(C)[N+](C)(CCC(C(N)=O)(c1ccccc1)c1ccccc1)C(C)C [Isopropamide] | 35.6 µM
84 | Clc1ccc(C(Cn2ccnc2)OCc2ccsc2Cl)c(Cl)c1 (centres unmarked) [Tioconazole] | 0.25 µM
85 | N#C/C(=C1/SC[C@@H](c2ccc(Cl)cc2Cl)S1)n1ccnc1 [luliconazole, reference compound] | 0.46 µM

From PMC12155096 (International Journal of Molecular Sciences, 2025)
